Experiments:
[1] = Rat body weight before the acute decompression hypoxia experiment (intragastric 7 days)
Procedure: (§1) Select healthy Wistar rats weight 160-200 g, half female and half male. After feeding for 3 days, these Wistar rats are randomly divided into ten groups according to their body weight, each group has 16±2 rats. The groups are divided as follows: five groups of the hypoxic exposure drug test group, respectively, are given 0.91 mg/kg, 1.83 mg/kg, 3.66 mg/kg, 7.31 mg/kg, and 14.63 mg/kg drugs. […] After continuous intragastric administration for 7 days, the animals in the hypoxic exposure group are simultaneously put into the decompression and hypoxia compound experimental chamber, the hatch is closed, and the pressure is reduced at a speed of 10 m/s. After being raised to an altitude of 6000 m and maintained for 8 hours, the speed in 10 m/s drops is reduced to normal altitude, open the hatch, and then take out the animal, collect blood samples (after standing for 1 hour, the supernatant is centrifuged and stored at −20° C.), and liver tissue samples. Detection indicator includes body weight, serum blood glucose, ATP, lactic acid, endothelin, nitric oxide, SOD, CO, MDA related to oxidative stress, and total protein, albumin, triglycerides, total cholesterol, high-density lipoprotein cholesterol, low-density lipoprotein cholesterol, glutamic pyruvic transaminase, total bilirubin, gluamic oxalacetic transaminase, serum urea nitrogen, creatinine, uric acid, lactate dehydrogenase, creatine kinase, α-hydroxybutyrate dehydrogenase; liver ATP, hepatic glycogen. Except that the formal oxygen control animal group is not put into the decompression and hypoxia compound experimental chamber, other experimental conditions and detection indicators are the same.

[2] = tested on: rats exposed to acute altitude hypoxia; test: Renal function in rats exposed to acute altitude hypoxia; format: in vivo, Wistar rat; conditions: for Creatinine / Uric acid: 0.11 g/kg
Procedure: as §1
(§2) Measure blood glucose, total protein, albumin, triglycerides, total cholesterol, high-density lipoprotein cholesterol, low-density lipoprotein cholesterol, glutamic-pyruvic transaminase, total bilirubin, glutamic oxalacetic transaminase, serum urea nitrogen, creatinine, uric acid, lactate dehydrogenase, creatine kinase, α-hydroxybutyrate dehydrogenase, blood homocysteine by using an automatic blood biochemical analyzer.

[3] = tested on: rats exposed to acute altitude hypoxia; test: Blood glucose in rats exposed to acute altitude hypoxia (6000 m, 8 h, after 7 days intragastric); format: in vivo, Wistar rat; conditions: for Blood sugar: 0.11 g/kg
Procedure: as §1, §2

[4] = Body weight of mice before closed hypoxia tolerance test; conditions: 0.16 g/kg
[5] = Mice weight before hypoxia tolerance test of simulated 10000 m altitude acute decompression; conditions: 0.16 g/kg
[6] = tested on: rats exposed to acute altitude hypoxia; test: Protein metabolism in rats exposed to acute altitude hypoxia; format: in vivo, Wistar rat; conditions: for albumin (second column): 0.11 g/kg
Procedure: as §1, §2

[7] = tested on: rats with acute altitude hypoxia injury; test: Oxidative stress indexes of rats with acute altitude hypoxia injury; format: in vivo, Wistar rat
Excerpt: Operate according to the instructions, and then measure the absorbance value of each tube, and afterwards calculate the content of malondialdehyde in the sample to be tested according to the formula. […] The latter oxidizes hydroxylamine to form nitrite. It appears purplish red under the action of chromogenic agent. Measure its absorbance by a visible light spectrophotometer. When the measured sample contains superoxide dismutase, it has specific inhibitory effect on superoxide anion free radicals, make formed nitrite reduced. […] The superoxide dismutase activity in the tested sample can be calculated by formula calculation. […] The latter can form a stable complex with phenanthrophins and measure its antioxidant capacity by colorimetry. Operate according to the kit instructions, measure the absorbance of each tube at a wavelength of 520 nm, and then calculate the total antioxidant capacity in the sample to be tested according to the formula.

[8] = seven days, repeat experiment in male mice
[9] = female rats, hypoxia, 0.11 g/kg
[10] = female rats, normoxia, 0.11 g/kg

CC(=O)Nc1nnc(S(N)(=O)=O)s1 [Acetazolamide, reference compound]
rat body weight Female 1 day ([1]; 0.11 g/kg): 153.4 ± 6.1 g
rat body weight Female 7 days ([1]; 0.11 g/kg): 163.3 ± 6.76 g
rat body weight Male 1 day ([1]; 0.11 g/kg): 172.4 ± 6.8 g
rat body weight Male 7 days ([1]; 0.11 g/kg): 189.1 ± 11.8 g
effect on body weight ([1]; female rats, 7 days): no significant effects
effect on weight ([1]; male rats, 7 days): decreased
Creatinine ([2]; female rats, hypoxia): 18.78 ± 1.96 µmol/L
Uric acid ([2]; female rats, hypoxia): 77.80 ± 17.31 µmol/L
effect on serum urea nitrogen and creatinine values ([2]; female rats, normoxia): increasing
effect on serum uric acid level ([2]; female rats, normoxia): reducing
Creatinine ([2]; female rats, normoxia): 19.67 ± 0.32 µmol/L
Uric acid ([2]; female rats, normoxia): 82.00 ± 15.10 µmol/L
effect on serum urea nitrogen and creatinine value ([2]; hypoxia exposed female rats): increasing
effect on serum uric acid level ([2]; hypoxia exposed female rats): decreasing
effect on serum creatinine ([2]; hypoxia exposed male rats): no significant effect
effect on serum urea nitrogen content ([2]; hypoxia exposed male rats): increase
effect on serum uric acid level ([2]; hypoxia exposed male rats): can reduce
Creatinine ([2]; male rats, hypoxia): 25.01 ± 2.48 µmol/L
Uric acid ([2]; male rats, hypoxia): 81.86 ± 11.05 µmol/L
effect on blood glucose ([3]; acute hypoxia exposed female rats): no significant effects
Blood sugar ([3]; female rats, hypoxia): 7.63 ± 0.76 mmol/L
effect on blood glucose ([3]; female rats, normoxia): lowering the blood glucose
Blood sugar ([3]; female rats, normoxia): 7.18 ± 0.39 mmol/L
effect on blood glucose level ([3]; male rats): no significant effects
Blood sugar ([3]; male rats, hypoxia): 8.87 ± 1.24 mmol/L
weight 1 day ([4]; female mice): 20.27 ± 0.90 g
weight 3 days ([4]; female mice): 20.88 ± 1.50 g
weight 1 day ([4]; male mice): 15.41 ± 1.08 g
weight 3 days ([4]; male mice): 15.88 ± 1.24 g
Mice weight Female 1 day ([5]; administration for 14 days): 15.24 ± 0.89 g
Mice weight Female 7 days ([5]; administration for 14 days): 19.35 ± 3.12 g
Mice weight Male 1 day ([5]; administration for 14 days): 14.66 ± 1.52 g
Mice weight Male 7 days ([5]; administration for 14 days): 16.29 ± 3.25 g
Mice weight Male 14 days ([5]; administration for 14 days): 21.16 ± 3.61 g
Mice weight Female ([5]; administration for three days): 17.80 ± 0.94 g
Mice weight Male ([5]; administration for three days): 18.29 ± 0.85 g
Mice weight Male 1 day [5, 8]: 19.53 ± 0.93 g
Mice weight Male 7 days [5, 8]: 21.35 ± 2.47 g
Mice weight Female ([5]; single dose test): 17.31 ± 1.22 g
Mice weight Male ([5]; single dose test): 19.47 ± 0.57 g
effect on serum total protein content ([6]; female rats): has been not found
albumin (second column) ([6]; female rats, hypoxia): 29.18 ± 1.68 g/L
effect on serum albumin content ([6]; female rats, normoxia): can slightly increase
albumin (second column) ([6]; female rats, normoxia): 32.13 ± 0.45 g/L
effect on serum total protein content ([6]; male rats exposed to hypoxia): is not found
albumin (second column) ([6]; male rats, hypoxia): 27.87 ± 1.140 g/L
Endo Dialdehyde [7, 9]: 13.09 ± 2.13 nmol/L
Superoxide dismutase [7, 9]: 57.11 ± 3.40 U/ml
Total antioxidants [7, 9]: 10.36 ± 0.81 U/ml
Endo Dialdehyde [7, 10]: 14.12 ± 0.32 nmol/L
Superoxide dismutase [7, 10]: 50.88 ± 3.34 U/ml
Total antioxidants [7, 10]: 10.31 ± 0.20 U/ml
effect on serum superoxide dismutase activity ([7]; hypoxia exposed female rats): increasing
effect on serum total antioxidants and malondialdehyde ([7]; hypoxia exposed female rats): no significant effects
effect on serum superoxide dismutase activity ([7]; hypoxia exposed male rats): increasing
effect on serum total antioxidants and malondialdehyde ([7]; male rats): no significant effects
Malonaldehyde ([7]; male rats, hypoxia, 0.11 g/kg): 3.24 ± 1.52 nmol/L
Superoxide dismutase ([7]; male rats, hypoxia, 0.11 g/kg): 182.51 ± 4.46 U/ml
